Columns and labels:
IRAK4 [1] = biological target: T1, IRAK4 (Homo sapiens, UniProt Q9NWZ3); test: IRAK4 Degradation Assay (Karpas299, HTRF/TR-FRET); type: cell-based; conditions: Karpas-299 cells
T1 construct: endogenous in cells; host or cells: Karpas299
T1 sequence (Q9NWZ3 1-460): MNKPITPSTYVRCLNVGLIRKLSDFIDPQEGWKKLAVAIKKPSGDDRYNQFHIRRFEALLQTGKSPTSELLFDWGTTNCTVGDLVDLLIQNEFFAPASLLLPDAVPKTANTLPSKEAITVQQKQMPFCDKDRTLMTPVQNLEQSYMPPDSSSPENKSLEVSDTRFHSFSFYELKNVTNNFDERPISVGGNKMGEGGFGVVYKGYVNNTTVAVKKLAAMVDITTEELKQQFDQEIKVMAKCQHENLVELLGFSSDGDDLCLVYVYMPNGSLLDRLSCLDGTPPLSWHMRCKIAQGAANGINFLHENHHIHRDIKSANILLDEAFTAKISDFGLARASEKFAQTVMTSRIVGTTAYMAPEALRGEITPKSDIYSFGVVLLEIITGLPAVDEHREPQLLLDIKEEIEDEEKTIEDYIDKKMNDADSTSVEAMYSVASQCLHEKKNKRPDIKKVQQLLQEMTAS
Procedure, shortened: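 Karpas299 cells at 0.2 million per well were exposed to serially diluted compounds for 24 h or 5 h, then lysed. IRAK4 remaining in lysates was quantified by HTRF (665/620 nm) after overnight antibody incubation at room temperature. Percent degradation was fitted to a four-parameter curve to give IC50 (DC50).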

IRAK4 [2] = biological target: T1, IRAK4; test: IRAK4 Degradation Assay with Human Serum (Karpas299, HTRF/TR-FRET); type: cell-based; conditions: Karpas-299 in human serum, 24 hrs treatment; for DC50: read-out: IRAK4 degradtion with human serum assay DC50; for Dmax: read-out: IRAK4 degradtion with human serum assay Dmax (%)
Procedure, shortened: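 Karpas299 cells in human AB serum (0.2 million/well) treated with serial compound dilutions for 24 h. After lysis, IRAK4 quantified by HTRF (overnight antibody incubation at room temperature, 665/620 nm read). Degradation percentage fitted to four-parameter curve to give DC50.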

[3] = 24 h treatment, maximum percentage of degradation, read-out: IRAK4 in Karpas-299 (24 h) Dmax (%)
[4] = 24 h treatment, read-out: IRAK4 in Karpas-299 (24 h) DC50

Structure (SMILES)	Dmax (IRAK4 [1]; [3]) [%]	DC50 (IRAK4 [1]; [4]) [nM]	DC50 (IRAK4 [2]) [nM]	Dmax (IRAK4 [2]) [%]	IRAK4 in Karpas-299 (24 h) Dmax (%) (IRAK4 [1]; 24 h treatment, maximum percentage of degradation)	IRAK4 degradtion with human serum assay Dmax (%) (IRAK4 [2])	Dmax (IRAK4 [1]; 5 h treatment, maximum percentage of degradation, read-out: IRAK4 in Karpas-299 (5 h) Dmax (%)) [%]	DC50 (IRAK4 [1]; 5 h treatment, read-out: IRAK4 in Karpas-299 (5 h) DC50) [nM]
CC(C)(O)c1cc2nn([C@H]3CC[C@H](N4CCN(C(=O)[C@@H]5CCN(c6ccc(N7CCC(=O)NC7=O)cc6)C5)CC4)CC3)cc2cc1NC(=O)c1ccc2cc(C#N)cnn12 [Example 263, 3-cyano-N-(2-((1R,4r)-4-(4-((R)-1-(4-(2,4-dioxotetrahydropyrimidin-1(2H)-yl)phenyl)pyrrolidine-3-carbonyl)piperazin-1-yl)cyclohexyl)-6-(2-hydroxypropan-2-yl)-2H-indazol-5-yl)pyrrolo[1,2-b]pyridazine-7-carboxamide]	96	2.6	15	99				
CC(C)(O)c1cc2nn([C@H]3CC[C@H](N4CCN(CCc5cc(F)c([C@H]6CCC(=O)NC6=O)c(F)c5)CC4=O)CC3)cc2cc1NC(=O)c1ccc2cc(C#N)cnn12 [Example 334, 3-cyano-N-(2-((1R,4r)-4-(4-(4-((R)-2,6-dioxopiperidin-3-yl)-3,5-difluorophenethyl)-2-oxopiperazin-1-yl)cyclohexyl)-6-(2-hydroxypropan-2-yl)-2H-indazol-5-yl)pyrrolo[1,2-b]pyridazine-7-carboxamide]	95	0.6	6.3	94				
CC(C)(O)c1cc2nn([C@H]3C[C@H](N4CCN(C(=O)[C@@H]5CCN(c6cc(F)c([C@H]7CCC(=O)NC7=O)c(F)c6)C5)CC4)C3)cc2cc1NC(=O)c1ccc2cc(C#N)cnn12 [Example 329, 3-cyano-N-(2-((1R,3r)-3-(4-((R)-1-(4-((R)-2,6-dioxopiperidin-3-yl)-3,5-difluorophenyl)pyrrolidine-3-carbonyl)piperazin-1-yl)cyclobutyl)-6-(2-hydroxypropan-2-yl)-2H-indazol-5-yl)pyrrolo[1,2-b]pyridazine-7-carboxamide]		0.8	19		96	98		
COC[C@H]1CN(C2CCN(c3ccc(C4CCC(=O)NC4=O)nc3C)CC2)CCN1[C@H]1CC[C@H](n2cc3cc(NC(=O)c4ccc5cc(C#N)cnn45)c(C(C)(C)O)cc3n2)CC1 (stereo partly drawn) [Example 415, 3-cyano-N-(2-((1R,4r)-4-((2R)-4-(1-(6-(2,6-dioxopiperidin-3-yl)-2-methylpyridin-3-yl)piperidin-4-yl)-2-(methoxymethyl)piperazin-1-yl)cyclohexyl)-6-(2-hydroxypropan-2-yl)-2H-indazol-5-yl)pyrrolo[1,2-b]pyridazine-7-carboxamide]	97	1.4	8.6	98				
CC(C)(O)c1cc2nn([C@H]3CC[C@H](N4CCN(C5CCN(c6ccc7c(c6)CN(C6CCC(=O)NC6=O)C7=O)CC5)CC4)CC3)cc2cc1NC(=O)c1ccc2cc(C#N)cnn12 (stereo partly drawn) [Example 417, 3-cyano-N-(2-((1r,4r)-4-(4-(1-(2-(2,6-dioxopiperidin-3-yl)-1-oxoisoindolin-5-yl)piperidin-4-yl)piperazin-1-yl)cyclohexyl)-6-(2-hydroxypropan-2-yl)-2H-indazol-5-yl)pyrrolo[1,2-b]pyridazine-7-carboxamide]	95	0.9	4.5	95				
CC(C)(O)c1cc2nn([C@H]3CC[C@H](N4CCN(C5CCN(c6cc(F)c([C@H]7CCC(=O)NC7=O)c(F)c6)CC5)C[C@@H]4CO)CC3)cc2cc1NC(=O)c1ccc2cc(C#N)cnn12 [Example 399, 3-cyano-N-(2-((1R,4r)-4-((R)-4-(1-(4-((R)-2,6-dioxopiperidin-3-yl)-3,5-difluorophenyl)piperidin-4-yl)-2-(hydroxymethyl)piperazin-1-yl)cyclohexyl)-6-(2-hydroxypropan-2-yl)-2H-indazol-5-yl)pyrrolo[1,2-b]pyridazine-7-carboxamide]	96	0.5	11	99				
CC(C)(O)c1cc2nn([C@H]3CC[C@H](N4CCN(C(=O)N5CCN(c6ccc(C7CCC(=O)NC7=O)cc6)CC5)CC4)CC3)cc2cc1NC(=O)c1ccc2cc(C#N)cnn12 (stereo partly drawn) [Example 292, 3-cyano-N-(2-((1r,4r)-4-(4-(4-(4-(2,6-dioxopiperidin-3-yl)phenyl)piperazine-1-carbonyl)piperazin-1-yl)cyclohexyl)-6-(2-hydroxypropan-2-yl)-2H-indazol-5-yl)pyrrolo[1,2-b]pyridazine-7-carboxamide]	94	1.8	37	95				
CC(C)(O)c1cc2nn(C3CCN([C@@H]4CCN(C5CN(c6cc(F)c([C@H]7CCC(=O)NC7=O)c(F)c6)C5)CC4(F)F)CC3)cc2cc1NC(=O)c1ccc2cc(C#N)cnn12 [Example 342, 3-cyano-N-(2-((R)-1′-(1-(4-((R)-2,6-dioxopiperidin-3-yl)-3,5-difluorophenyl)azetidin-3-yl)-3′,3′-difluoro-[1,4′-bipiperidin]-4-yl)-6-(2-hydroxypropan-2-yl)-2H-indazol-5-yl)pyrrolo[1,2-b]pyridazine-7-carboxamide]	102	1.5	14	98				
CC(C)(O)c1cc2nn(C34CC(N5CCN(C(=O)[C@@H]6CCN(c7cc(F)c([C@H]8CCC(=O)NC8=O)c(F)c7)C6)CC5)(C3)C4)cc2cc1NC(=O)c1cccc(C(F)(F)F)n1 [Example 152, N-(2-(3-(4-((R)-1-(4-((R)-2,6-dioxopiperidin-3-yl)-3,5-difluorophenyl)pyrrolidine-3-carbonyl)piperazin-1-yl)bicyclo[1.1.1]pentan-1-yl)-6-(2-hydroxypropan-2-yl)-2H-indazol-5-yl)-6-(trifluoromethyl)picolinamide]	96	2.1	55	98			96	3.8
CC(C)(O)c1cc2nn(C3CCN([C@@H]4CCN(CCc5cc(F)c([C@H]6CCC(=O)NC6=O)c(F)c5)CC4(F)F)CC3)cc2cc1NC(=O)c1ccc2cc(C#N)cnn12 [Example 340, 3-cyano-N-(2-((R)-1′-(4-((R)-2,6-dioxopiperidin-3-yl)-3,5-difluorophenethyl)-3′,3′-difluoro-[1,4′-bipiperidin]-4-yl)-6-(2-hydroxypropan-2-yl)-2H-indazol-5-yl)pyrrolo[1,2-b]pyridazine-7-carboxamide]	98	3.4	16	97				
CC(C)(O)c1cc2nn(C3CCN([C@@H]4CCN(C5CCN(c6cc(F)c([C@H]7CCC(=O)NC7=O)c(F)c6)CC5)CC4(F)F)CC3)cc2cc1NC(=O)c1ccc2cc(C#N)cnn12 [Example 341, 3-cyano-N-(2-((R)-1″-(4-((R)-2,6-dioxopiperidin-3-yl)-3,5-difluorophenyl)-3′,3′-difluoro-[1,4′:1′,4″-terpiperidin]-4-yl)-6-(2-hydroxypropan-2-yl)-2H-indazol-5-yl)pyrrolo[1,2-b]pyridazine-7-carboxamide]	97	1.5	15	96				
CC(C)(O)c1cc2nn([C@H]3CC[C@H](N4CCN([C@@H]5CCN(c6ccc(N7CCC(=O)NC7=O)cc6)C5)CC4)CC3)cc2cc1NC(=O)c1ccc2cc(C#N)cnn12 [Example 294, 3-cyano-N-(2-((1R,4r)-4-(4-((R)-1-(4-(2,4-dioxotetrahydropyrimidin-1(2H)-yl)phenyl)pyrrolidin-3-yl)piperazin-1-yl)cyclohexyl)-6-(2-hydroxypropan-2-yl)-2H-indazol-5-yl)pyrrolo[1,2-b]pyridazine-7-carboxamide]	97	3.4	14	98				
C[C@H]1CN(C2CN(c3cc(F)c([C@H]4CCC(=O)NC4=O)c(F)c3)C2)CCN1[C@H]1CC[C@H](n2cc3cc(NC(=O)c4ccc5cc(C#N)cnn45)c(C(C)(C)O)cc3n2)CC1 [Example 308, 3-cyano-N-(2-((1S,4r)-4-((S)-4-(1-(4-((R)-2,6-dioxopiperidin-3-yl)-3,5-difluorophenyl)azetidin-3-yl)-2-methylpiperazin-1-yl)cyclohexyl)-6-(2-hydroxypropan-2-yl)-2H-indazol-5-yl)pyrrolo[1,2-b]pyridazine-7-carboxamide]	97	1.5	8.9	99				

Source: patent US20250195513A1, “DEGRADATION OF IRAK4 BY CONJUGATION OF IRAK4 INHIBITORS WITH E3 LIGASE LIGAND AND METHODS OF USE” (BeiGene, Ltd., priority 2022, published 2025)
